Measured values as given in US20220233708A1, “ANTIBODY-DRUG CONJUGATE, INTERMEDIATE THEREOF, PREPARATION METHOD THEREFOR AND APPLICATION THEREOF” (priority 2019, published 2022).
Where two headings read alike, the source gives them in different places. Starred links: 1 amine or outer side, 2 acyl side, 3 side chain; linkers in the order of their positions; H or OH if unused. Non-standard residues stand in square brackets, D forms with d. Residues, ends and D or L forms follow the SMILES beside them. *: point of attachment. Exatecan = CC[C@@]1(O)C(=O)OCc2c1cc1n(c2=O)Cc2c-1nc1cc(F)c(C)c3c1c2[C@@H](N*)CC3; Hexanoyl(6-maleimido) = O=C1C=CC(=O)N1CCCCCC(=O)*; NHCH2OCH2CO = O=C(COCN[*:1])[*:2]

Assays:
[1] = test system: NCI-N87 cell line; assay: Killing activity on NCI-N87 before and after enzyme cleavage by cathepsin B system; type: cell-based, human; settings: NCI-N87, 144 hours
Description: The NCI-N87 cell line was selected as the experimental cell line.

[2] = test system: anti-B7-H3 antibody P2E5; assay: Coupling of linker-drug conjugates with P2E5; type: physicochemical; settings: coupling with P2E5, highest DAR (excessive coupling)
Description: (§1) The anti-B7-H3 antibody P2E5, anti-Claudin18.2 antibody IMAB362, and anti-HER2 antibody Trastuzumab (concentration was 15 mg/mL) were replaced into 50 mM PB/1.0 mM EDTA buffer (pH 7.0) by a G25 desalting column, respectively. 12 equivalents of TECP was added and the mixture was stirred at 37° C. for 2 hours to fully open the disulfide bonds between the antibody chains. Then phosphoric acid was used to adjust the pH of the reduced antibody solution to 6.0, and the temperature of the water bath was lowered to 25° C. for coupling reaction. […] After the reaction was completed, the sample was filtered with a 0.22 μm membrane. Uncoupled small molecules were purified and removed by a tangential flow ultrafiltration system. The buffer was 50 mM PB/1.0 mM EDTA solution (pH 6.0). After purification, sucrose (final concentration was 6%) was added, and the mixture was stored in a refrigerator at −20° C. The UV method was used to measure the absorbance values at 280 nm and 370 nm respectively, and the DAR value was calculated.

[3] = test system: anti-Claudin18.2 antibody IMAB362; assay: Coupling of linker-drug conjugates with IMAB362; type: physicochemical; settings: coupling with IMAB362, highest DAR (excessive coupling)
Description: as §1

[4] = test system: anti-HER2 antibody Trastuzumab; assay: Coupling of linker-drug conjugates with Trastuzumab; type: physicochemical; settings: highest DAR (excessive coupling)
Description: as §1

[5] = test system: other antibodies; assay: Coupling of linker-drug conjugates with other / different antibodies; type: physicochemical; settings: coupled with other / different antibodies
[6] = target: cathepsin B (Homo sapiens, UniProt P07858); assay: In vitro enzyme cleavage experiment of linker-drug conjugates; type: in vitro ADME; settings: pH 5.0 to pH 7.0
Description: Linker-drug conjugates (LE14 and GGFG-Dxd) and cathepsin B were incubated in three different pH (5.0, 6.0, 7.0) buffers, and samples were taken at different time points into the high performance liquid chromatography-mass spectrometer. The release percentage of the drug was determined by external standard method (with Dxd as the external standard).

Compound	IC50 ([1]; after cathepsin B system pH 5.0, 37° C., 4 hours, read-out: IC50 (Based on SN-38 equivalent), After enzyme cleavage) [nM]	IC50 ([1]; before cathepsin B cleavage, read-out: IC50 (Based on SN-38 equivalent), Before enzyme cleavage) [nM]	Ratio of aggregates [2] [%]	Whether precipitation [2]	Ratio of aggregates [3] [%]	Whether precipitation [3]	Ratio of aggregates [4] [%]	Whether precipitation [4]	Precipitation (in words) [5]	Ratio of aggregates (in words) [5]	Enzyme cleavage speed (in words) [6]
CCc1c2c(nc3ccc(O)cc13)-c1cc3c(c(=O)n1C2)COC(=O)[C@]3(O)CC [SN38, 7-ethyl-10-hydroxycamptothecin]	6.85	6.47	–	–	–	–	–	–	–	–	–
CC[C@@]1(O)C(=O)OCc2c1cc1n(c2=O)Cc2c-1nc1cc(F)c(C)c3c1c2[C@@H](NC(=O)COCNC(=O)CNC(=O)[C@H](Cc1ccccc1)NC(=O)CNC(=O)CNC(=O)CCCCCN1C(=O)C=CC1=O)CC3 [GGFG-Dxd, reference compound] ({Hexanoyl(6-maleimido)}-GGFG[NHCH2OCH2CO]-Exatecan)	–	–	20	produced precipitation	35	produced precipitation	0.1	did not produce precipitation and No	precipitation would be produced	high	slower enzyme cleavage speed
